{"source": "patent US11255806B2", "about": "“Interdigitated electrodes for in vitro analysis of cells” (UNIVERSITY OF CENTRAL FLORIDA RESEARCH FOUNDATION, INC., priority 2017, dated 2022)", "test_system": "iPSC cardiomyocytes (iCell Cardiomyocytes^2)", "assay": "Model drug (norepinephrine) cardiotoxicity experiment: impedance / cell index on nIDEs with cultured iPSC cardiomyocytes", "type": "cell-based, Human", "note": "Values joined by “and” are separate entries in the source; they are usually repeats but may differ in a detail not shown here. Identical values can stand only once.", "data": [{"smiles": "NC[C@H](O)c1ccc(O)c(O)c1", "note": "[norepinephrine]", "values": [{"measurement": "change of CI and % CI with norepinephrine concentration", "setting": "0 μM to 250 μM, N=6, FIG. 24", "value": "both decrease as the concentration of norepinephrine increases"}, {"measurement": "percent cell index (% CI)", "setting": "at 256 μm norepinephrine, mean of N=7, 86.91% at 0 μM, FIG. 24", "value": 48.88, "unit": "%"}, {"measurement": "cell index (CI)", "setting": "at 256 μm norepinephrine, mean of N=7, CI=2.34 at 0 μM, FIG. 23", "value": 1.13}, {"measurement": "cellular index (CI) after increased concentrations of norepinephrine", "setting": "summary statement, concentration not given, decrease from 2.34 / 2.3", "value": "1.13 and 1"}]}]}
